pIC50: −log10 of the molar value. Where a name gives a salt, the structure may show the parent alone.
Columns and labels:
[1] = target: human recombinant FGFR4 (Homo sapiens, UniProt P22455); assay: FGFR family enzymatic activity assay (Caliper-based kinase assay), FGFR4; format: biochemical; settings: FGFR4 2 nM, ATP 250 μM, peptide substrate 1 μM, room temperature 3 h
Source text: (§1) A Caliper-based kinase assay (Caliper Life Sciences, Hopkinton, Mass.) was used to measure inhibition of FGFR family (FGFR1, FGFR2, FGFR3, FGFR4) kinase activity of a compound of Formula (I′) or (I). […] This value is presented as the IC50.

[2] = target: human recombinant FGFR1 (Homo sapiens, UniProt P11362); assay: FGFR family enzymatic activity assay (Caliper-based kinase assay), FGFR1; format: biochemical; settings: FGFR1 0.5 nM, ATP 100 μM, peptide substrate 1 μM, room temperature 3 h
Source text: as §1

[3] = target: human recombinant FGFR2 (Homo sapiens, UniProt P21802); assay: FGFR family enzymatic activity assay (Caliper-based kinase assay), FGFR2; format: biochemical; settings: FGFR2 0.1 nM, ATP 75 μM, peptide substrate 1 μM, room temperature 3 h
Source text: as §1

[4] = test system: SNU-16 cells; assay: Inhibition of FGFR2-dependent cell growth (Cell-titer Glo); format: cell-based; settings: Homo sapiens, SNU16 cells, 72 hrs incubation, cell viability by Cell-titer Glo
Description: The cell-based effects of FGFR inhibitors were determined by measuring inhibition of FGFR-dependent cell line growth. […] Percent inhibition of cell growth was calculated as a percentage of untreated cell viability. The percent inhibition was plotted as a function of log compound concentration. The IC50 was then calculated for each compound using Prism software from GraphPad.

[5] = target: human recombinant FGFR3 (Homo sapiens, UniProt P22607); assay: FGFR family enzymatic activity assay (Caliper-based kinase assay), FGFR3; format: biochemical; settings: FGFR3 0.9 nM, ATP 120 μM, peptide substrate 1 μM, room temperature 3 h
Source text: as §1

Chain of human recombinant FGFR3 (P22607 23-806): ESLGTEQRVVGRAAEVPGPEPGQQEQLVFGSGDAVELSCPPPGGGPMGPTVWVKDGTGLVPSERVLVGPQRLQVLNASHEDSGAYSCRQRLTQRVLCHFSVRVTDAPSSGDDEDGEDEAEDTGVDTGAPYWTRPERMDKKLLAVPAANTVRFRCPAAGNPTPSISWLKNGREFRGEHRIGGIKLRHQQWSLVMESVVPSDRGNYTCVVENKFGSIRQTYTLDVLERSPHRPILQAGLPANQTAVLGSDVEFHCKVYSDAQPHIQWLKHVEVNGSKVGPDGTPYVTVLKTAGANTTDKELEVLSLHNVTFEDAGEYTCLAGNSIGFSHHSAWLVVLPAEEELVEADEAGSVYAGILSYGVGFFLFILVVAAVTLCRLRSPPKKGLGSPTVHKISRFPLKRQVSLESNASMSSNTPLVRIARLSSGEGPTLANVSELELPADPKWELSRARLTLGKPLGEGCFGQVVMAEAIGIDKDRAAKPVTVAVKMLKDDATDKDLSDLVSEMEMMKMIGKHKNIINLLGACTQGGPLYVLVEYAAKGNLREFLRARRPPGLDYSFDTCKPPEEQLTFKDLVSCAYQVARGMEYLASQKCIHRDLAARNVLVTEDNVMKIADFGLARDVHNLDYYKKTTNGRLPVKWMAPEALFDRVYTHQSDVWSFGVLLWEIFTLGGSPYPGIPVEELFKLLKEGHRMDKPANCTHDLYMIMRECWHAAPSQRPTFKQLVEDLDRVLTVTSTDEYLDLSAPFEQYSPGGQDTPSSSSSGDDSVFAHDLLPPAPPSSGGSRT
Chain of human recombinant FGFR2 (P21802 22-821): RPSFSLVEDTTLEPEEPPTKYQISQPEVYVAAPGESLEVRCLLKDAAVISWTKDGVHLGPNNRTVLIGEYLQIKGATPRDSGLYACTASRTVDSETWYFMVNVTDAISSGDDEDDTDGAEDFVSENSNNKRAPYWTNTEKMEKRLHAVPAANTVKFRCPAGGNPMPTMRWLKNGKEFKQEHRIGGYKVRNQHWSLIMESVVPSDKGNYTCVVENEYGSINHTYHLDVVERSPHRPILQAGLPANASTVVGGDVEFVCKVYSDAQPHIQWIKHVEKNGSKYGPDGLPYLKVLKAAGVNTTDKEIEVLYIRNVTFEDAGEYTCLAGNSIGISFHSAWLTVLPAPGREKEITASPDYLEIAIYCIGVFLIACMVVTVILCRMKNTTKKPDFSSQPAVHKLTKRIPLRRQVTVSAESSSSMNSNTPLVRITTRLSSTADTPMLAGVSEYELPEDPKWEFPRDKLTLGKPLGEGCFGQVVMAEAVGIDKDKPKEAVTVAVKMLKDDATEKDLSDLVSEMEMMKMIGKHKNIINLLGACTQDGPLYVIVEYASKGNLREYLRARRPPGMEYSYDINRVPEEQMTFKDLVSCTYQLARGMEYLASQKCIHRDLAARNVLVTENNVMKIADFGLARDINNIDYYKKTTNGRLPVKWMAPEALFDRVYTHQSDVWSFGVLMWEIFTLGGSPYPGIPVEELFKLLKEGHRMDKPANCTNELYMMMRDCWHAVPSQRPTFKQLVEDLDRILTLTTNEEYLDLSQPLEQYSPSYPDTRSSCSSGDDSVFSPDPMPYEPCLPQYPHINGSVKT
Chain of human recombinant FGFR1 (P11362 22-822): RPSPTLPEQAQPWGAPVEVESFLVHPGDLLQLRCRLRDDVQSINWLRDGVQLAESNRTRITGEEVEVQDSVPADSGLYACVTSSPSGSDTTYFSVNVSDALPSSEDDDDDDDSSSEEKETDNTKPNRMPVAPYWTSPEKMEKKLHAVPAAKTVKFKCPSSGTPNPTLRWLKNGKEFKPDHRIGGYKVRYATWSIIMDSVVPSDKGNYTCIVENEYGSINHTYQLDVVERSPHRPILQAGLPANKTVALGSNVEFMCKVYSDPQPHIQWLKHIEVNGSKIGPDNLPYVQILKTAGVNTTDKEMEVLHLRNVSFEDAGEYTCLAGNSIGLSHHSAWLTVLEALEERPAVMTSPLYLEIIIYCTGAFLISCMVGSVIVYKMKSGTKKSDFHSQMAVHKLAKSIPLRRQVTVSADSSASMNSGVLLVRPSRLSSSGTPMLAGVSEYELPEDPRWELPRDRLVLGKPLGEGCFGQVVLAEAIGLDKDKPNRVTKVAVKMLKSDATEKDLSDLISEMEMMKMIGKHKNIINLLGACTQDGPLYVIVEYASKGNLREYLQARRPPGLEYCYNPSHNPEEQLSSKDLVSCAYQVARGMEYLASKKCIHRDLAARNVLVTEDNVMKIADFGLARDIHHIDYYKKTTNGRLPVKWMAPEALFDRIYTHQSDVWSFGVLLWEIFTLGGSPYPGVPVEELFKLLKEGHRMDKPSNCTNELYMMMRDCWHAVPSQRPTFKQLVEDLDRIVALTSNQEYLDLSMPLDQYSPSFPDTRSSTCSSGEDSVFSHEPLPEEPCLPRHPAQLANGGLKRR
Chain of human recombinant FGFR4 (P22455 22-802): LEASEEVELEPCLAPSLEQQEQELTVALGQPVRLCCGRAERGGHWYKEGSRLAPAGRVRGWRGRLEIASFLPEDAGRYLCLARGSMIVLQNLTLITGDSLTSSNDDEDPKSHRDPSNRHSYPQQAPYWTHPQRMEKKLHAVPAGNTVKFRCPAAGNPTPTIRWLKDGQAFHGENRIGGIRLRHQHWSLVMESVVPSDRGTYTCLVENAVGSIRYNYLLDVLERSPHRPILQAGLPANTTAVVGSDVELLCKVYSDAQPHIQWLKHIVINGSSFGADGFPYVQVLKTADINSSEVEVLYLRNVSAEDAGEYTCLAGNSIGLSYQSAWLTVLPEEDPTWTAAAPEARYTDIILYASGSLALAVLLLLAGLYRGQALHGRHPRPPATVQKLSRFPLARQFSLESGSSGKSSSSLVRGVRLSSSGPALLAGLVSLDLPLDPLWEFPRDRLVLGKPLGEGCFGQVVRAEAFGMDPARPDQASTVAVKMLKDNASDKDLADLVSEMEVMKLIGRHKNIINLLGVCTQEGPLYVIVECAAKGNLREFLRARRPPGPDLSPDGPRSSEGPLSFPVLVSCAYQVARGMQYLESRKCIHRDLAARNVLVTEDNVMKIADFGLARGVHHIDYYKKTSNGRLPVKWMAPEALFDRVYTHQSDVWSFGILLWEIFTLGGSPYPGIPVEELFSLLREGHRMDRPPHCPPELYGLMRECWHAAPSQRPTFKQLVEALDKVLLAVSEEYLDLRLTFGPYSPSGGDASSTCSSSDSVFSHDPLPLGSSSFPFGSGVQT

| SMILES | pIC50 [1] | pIC50 [2] | pIC50 [3] | pIC50 [4] | pIC50 [5] |
| --- | --- | --- | --- | --- | --- |
| C=CC(=O)Nc1ccc(CCn2c(=O)c(-c3cc(OC)cc(OC)c3Cl)cc3cnc(NCC4CCN(C)CC4)nc32)cc1 [Example 71, N-(4-(2-(6-(2-chloro-3,5-dimethoxyphenyl)-2-(((1-methylpiperidin-4-yl)methyl)-amino)-7-oxopyrido[2,3-d]pyrimidin-8(7H)-yl)ethyl)phenyl)acrylamide] | 7.02 | 9.00 | 8.89 | 8.31 | 8.23 |
| C=CC(=O)Nc1cccc(Cn2c(=O)c(-c3c(Cl)c(OC)cc(OC)c3Cl)cc3cnc(NCCCCN(CC)CC)nc32)c1 [Example 6, N-(3-[[6-(2,6-dichloro-3,5-dimethoxyphenyl)-2-[[4-(diethylamino)butyl]-amino]-7-oxo-7H,8H-pyrido[2,3-d]pyrimidin-8-yl]methyl]phenyl)acrylamide] | 7.48 | 8.89 | 9.00 |  | 8.51 |
| C=CC(=O)Nc1ccc(CCn2c(=O)c(-c3c(Cl)c(OC)cc(OC)c3Cl)cc3cnc(NC4CCN(C)CC4)nc32)cc1 [Example 62, N-(4-(2-(6-(2,6-dichloro-3,5-dimethoxyphenyl)-2-((1-methylpiperidin-4-yl)amino)-7-oxopyrido[2,3-d]pyrimidin-8(7H)-yl)ethyl)phenyl)acrylamide] | 7.27 | 9.15 | 8.70 | 8.68 | 8.00 |
| C=CC(=O)Nc1ccc(CCn2c(=O)c(-c3c(Cl)c(OC)cc(OC)c3Cl)cc3cnc(NC)nc32)cc1 [Example 4, N-(4-(2-(6-(2,6-dichloro-3,5-dimethoxyphenyl)-2-(methylamino)-7-oxopyrido[2,3-d]pyrimidin-8(7H)-yl)ethyl)phenyl)acrylamide] | 7.98 | 8.89 | 8.80 | 8.85 | 8.51 |
| C=CC(=O)Nc1ccc(CCn2c(=O)c(-c3c(Cl)c(OC)cc(OC)c3Cl)cc3cnc(NCCN4CCOCC4)nc32)cc1 [Example 44, N-(4-(2-(6-(2,6-dichloro-3,5-dimethoxyphenyl)-2-((2-morpholinoethyl)amino)-7-oxopyrido[2,3-d]pyrimidin-8(7H)-yl)ethyl)phenyl)acrylamide] | 7.85 | 9.00 | 8.60 | 8.51 | 8.40 |
| C=CC(=O)Nc1ccc(CCn2c(=O)c(-c3c(Cl)c(OC)cc(OC)c3Cl)cc3cnc(NC(CO)CO)nc32)cc1 [Example 76, N-(4-(2-(6-(2,6-dichloro-3,5-dimethoxyphenyl)-2-((1,3-dihydroxypropan-2-yl)-amino)-7-oxopyrido[2,3-d]pyrimidin-8(7H)-yl)ethyl)phenyl)acrylamide] | 8.02 | 9.10 | 8.80 | 8.13 | 8.17 |
| C=CC(=O)Nc1ccc(CCn2c(=O)c(-c3cc(OC)cc(OC)c3Cl)cc3cnc(NCCN4CCOCC4)nc32)nc1 [Example 39, N-(6-(2-(6-(2-chloro-3,5-dimethoxyphenyl)-2-((2-morpholinoethyl)amino)-7-oxopyrido[2,3-d]pyrimidin-8(7H)-yl)ethyl)pyridin-3-yl)acrylamide] | 7.38 | 9.05 | 8.26 | 8.92 | 8.27 |
| C=CC(=O)N1CCCC(CCn2c(=O)c(-c3ccccc3Cl)cc3cnc(NCCCCN(CC)CC)nc32)C1 (stereo not shown) [Example 2, 8-(2-(1-acryloylpiperidin-3-yl)ethyl)-6-(2-chlorophenyl)-2-(4-(diethylamino)-butylamino)pyrido[2,3-d]pyrimidin-7(8H)-one] | < 5.30 | 6.08 | 6.15 |  | 5.98 |
| C=CC(=O)Nc1ccc(CCn2c(=O)c(-c3c(Cl)c(OC)cc(OC)c3Cl)cc3cnc(NCC(C)(C)O)nc32)cc1 [Example 64, N-(4-(2-(6-(2,6-dichloro-3,5-dimethoxyphenyl)-2-((2-hydroxy-2-methylpropyl)-amino)-7-oxopyrido[2,3-d]pyrimidin-8(7H)-yl)ethyl)phenyl)acrylamide] | 7.70 | 9.30 | 8.66 | 8.49 | 8.26 |
| C=CC(=O)Nc1ccc(CCn2c(=O)c(-c3cc(OC)cc(OC)c3Cl)cc3cnc(NCCN4CCN(CC(C)(C)O)CC4)nc32)cc1 [Example 68, N-(4-(2-(6-(2-chloro-3,5-dimethoxyphenyl)-2-((2-(4-(2-hydroxy-2-methylpropyl)-piperazin-1-yl)ethyl)amino)-7-oxopyrido[2,3-d]pyrimidin-8(7H)-yl)ethyl)phenyl)acrylamide] | 7.27 | 9.15 | 8.80 | 8.51 | 8.09 |
| C=CC(=O)Nc1ccc(CCn2c(=O)c(-c3c(Cl)c(OC)cc(OC)c3Cl)cc3cnc(NCCCCN(CC)CC)nc32)cc1 [Example 5, N-(4-(2-(6-(2,6-dichloro-3,5-dimethoxyphenyl)-2-(4-(diethylamino)butylamino)-7-oxopyrido[2,3-d]pyrimidin-8(7H)-yl)ethyl)phenyl)acrylamide hydrochloride] | 7.49 | 8.96 | 8.82 | 8.25 | 8.26 |
| C=CC(=O)Nc1ccc(CCn2c(=O)c(-c3cc(OC)cc(OC)c3Cl)cc3cnc(NC(C)(C)CO)nc32)cc1 [Example 61, N-(4-(2-(6-(2-chloro-3,5-dimethoxyphenyl)-2-((1-hydroxy-2-methylpropan-2-yl)-amino)-7-oxopyrido[2,3-d]pyrimidin-8(7H)-yl)ethyl)phenyl)acrylamide] | 7.19 | 8.82 | 8.47 | 8.17 | 8.04 |
| C=CC(=O)Nc1ccc(CCn2c(=O)c(-c3c(Cl)c(OC)cc(OC)c3Cl)cc3cnc(NCC(O)CO)nc32)cc1 (stereo not shown) [Example 63, N-(4-(2-(6-(2,6-dichloro-3,5-dimethoxyphenyl)-2-((2,3-dihydroxypropyl)amino)-7-oxopyrido[2,3-d]pyrimidin-8(7H)-yl)ethyl)phenyl)acrylamide] | 8.01 | 9.15 | 9.05 | 8.51 | 8.49 |
| C=CC(=O)Nc1ccc(CCn2c(=O)c(-c3c(Cl)c(OC)cc(OC)c3Cl)cc3cnc(NCCO)nc32)cc1 [Example 65, N-(4-(2-(6-(2,6-dichloro-3,5-dimethoxyphenyl)-2-((2-hydroxyethyl)amino)-7-oxopyrido[2,3-d]pyrimidin-8(7H)-yl)ethyl)phenyl)acrylamide] | 7.86 | 9.22 | 8.77 | 8.52 | 8.34 |
| C=CC(=O)Nc1ccc(CCn2c(=O)c(-c3cc(OC)cc(OC)c3F)cc3cnc(NCCN4CCOCC4)nc32)cc1 [Example 43, N-(4-(2-(6-(2-fluoro-3,5-dimethoxyphenyl)-2-((2-morpholinoethyl)amino)-7-oxopyrido[2,3-d]pyrimidin-8(7H)-yl)ethyl)phenyl)acrylamide] | 7.15 | 8.70 | 8.59 | 8.43 | 8.02 |
| C=CC(=O)Nc1ccc(CCn2c(=O)c(-c3c(Cl)c(OC)cc(OC)c3Cl)cc3cnc(NC)nc32)nc1 [Example 38, N-(6-(2-(6-(2,6-dichloro-3,5-dimethoxyphenyl)-2-(methylamino)-7-oxopyrido[2,3-d]pyrimidin-8(7H)-yl)ethyl)pyridin-3-yl)acrylamide] | 8.20 | 8.92 | 8.70 | 8.60 | 8.48 |
| C=CC(=O)Nc1ccc(CCn2c(=O)c(-c3c(Cl)c(OC)cc(OC)c3Cl)cc3cnc(NCC4CCN(C)CC4)nc32)cc1 [Example 75, N-(4-(2-(6-(2,6-dichloro-3,5-dimethoxyphenyl)-2-(((1-methylpiperidin-4-yl)methyl)-amino)-7-oxopyrido[2,3-d]pyrimidin-8(7H)-yl)ethyl)phenyl)acrylamide] | 7.83 | 9.40 | 9.22 | 8.66 | 8.48 |
| C=CC(=O)Nc1ccc(CCn2c(=O)c(-c3c(Cl)c(OC)cc(OC)c3Cl)cc3cnc(NCCN4CCOCC4)nc32)nc1 [Example 51, N-(6-(2-(6-(2,6-dichloro-3,5-dimethoxyphenyl)-2-(2-morpholinoethylamino)-7-oxopyrido[2,3-d]pyrimidin-8(7H)-yl)ethyl)pyridin-3-yl)acrylamide] | 7.89 | 8.74 | 8.38 | 8.62 | 8.27 |
